Assay results published in ChEMBL document CHEMBL1201862, “PubChem BioAssay data set” (2004).
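Exposure lasted 48 hours, with cells grown in 96-well plates and compounds tested at five concentrations. At the GI50, growth is halved.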 Activity calls are given as the source filed them. Cut-off read from the data, not from the text of the source: active = GI50 up to about 1.1 µM and inactive = higher.

Experiments:
Experiment in all cases: NCI anticancer screen, dose series, 48 h
NCI-H226 = test system: NCI-H226
OVCAR-5 = test system: OVCAR-5
OVCAR-8 = test system: OVCAR-8
RXF 393 = test system: RXF 393
U-251 = test system: U-251
Malme-3M = test system: Malme-3M
HL-60 = test system: HL-60
KM12 = test system: KM12
SR = test system: SR
SK-MEL-28 = test system: SK-MEL-28
SF-295 = test system: SF-295
K562 = test system: K562
786-0 = test system: 786-0
A549 = test system: A549
Hs-578T = test system: Hs-578T
SK-OV-3 = test system: SK-OV-3
NCI-H522 = test system: NCI-H522
HOP-92 = test system: HOP-92
MDA-MB-231 = test system: MDA-MB-231
IGROV-1 = test system: IGROV-1

Measured: GI50

Cn1c(=O)c2nc(CCS)[nH]c2n(C)c1=O
inactive: NCI-H226 > 100 µM | OVCAR-5 > 100 µM | OVCAR-8 > 100 µM | RXF 393 90.6 µM | U-251 > 100 µM | Malme-3M > 100 µM | HL-60 > 100 µM | KM12 > 100 µM | SR > 100 µM | SK-MEL-28 > 100 µM | SF-295 > 100 µM | K562 > 100 µM | 786-0 51.2 µM | A549 > 100 µM | Hs-578T 31.4 µM | SK-OV-3 68.1 µM | NCI-H522 > 100 µM | HOP-92 > 100 µM | MDA-MB-231 > 100 µM | IGROV-1 > 100 µM

N#C/C(=C\c1ccc(Cl)cc1)c1nc(-c2cc3ccccc3oc2=O)cs1
inactive: NCI-H226 39 µM | OVCAR-5 > 100 µM | OVCAR-8 49.2 µM | RXF 393 83 µM | U-251 30.8 µM | Malme-3M 41.7 µM | HL-60 > 100 µM | KM12 74.1 µM | SR > 100 µM | SK-MEL-28 95.9 µM | SF-295 44.4 µM | K562 > 100 µM | 786-0 30.3 µM | A549 86.5 µM | Hs-578T 8.87 µM | SK-OV-3 84.5 µM | NCI-H522 15.6 µM | HOP-92 15.7 µM | MDA-MB-231 22 µM | IGROV-1 > 100 µM

C=CCN1C(=O)/C(=C/c2ccc(Cl)cc2)N=C1SC/C=C/C
inactive: NCI-H226 > 100 µM | OVCAR-5 37.8 µM | OVCAR-8 29.5 µM | RXF 393 15.7 µM | U-251 27.4 µM | Malme-3M 33.7 µM | HL-60 21.7 µM | KM12 32.3 µM | SR 17.5 µM | SK-MEL-28 53.2 µM | SF-295 46.9 µM | K562 25.5 µM | 786-0 33 µM | A549 11.2 µM | Hs-578T 37.7 µM | SK-OV-3 > 100 µM | NCI-H522 28.4 µM | HOP-92 24.2 µM | MDA-MB-231 42.4 µM | IGROV-1 65.5 µM

C=CC1C(OC2OC(CO)C(O)C(O)C2O)OC=C(C(=O)OC)C1CC1CC(=O)CC(CCc2ccc(O)cc2)O1 (stereo not given)
inactive: NCI-H226 > 100 µM | OVCAR-5 > 100 µM | OVCAR-8 > 100 µM | RXF 393 > 100 µM | U-251 > 100 µM | Malme-3M > 100 µM | HL-60 > 100 µM | KM12 > 100 µM | SR > 100 µM | SK-MEL-28 > 100 µM | SF-295 > 100 µM | K562 > 100 µM | 786-0 > 100 µM | A549 > 100 µM | Hs-578T > 100 µM | SK-OV-3 > 100 µM | NCI-H522 > 100 µM | HOP-92 > 100 µM | MDA-MB-231 > 100 µM | IGROV-1 > 100 µM

C/C(=C1/N=C(c2ccccc2)OC1=O)c1ccc(C)cc1
inactive: NCI-H226 > 100 µM | OVCAR-5 > 100 µM | OVCAR-8 > 100 µM | RXF 393 > 100 µM | U-251 > 100 µM | Malme-3M > 100 µM | HL-60 45.3 µM | KM12 > 100 µM | SR > 100 µM | SK-MEL-28 > 100 µM | SF-295 > 100 µM | K562 > 100 µM | 786-0 > 100 µM | A549 > 100 µM | Hs-578T > 100 µM | SK-OV-3 > 100 µM | NCI-H522 > 100 µM | HOP-92 > 100 µM | MDA-MB-231 > 100 µM | IGROV-1 > 100 µM
